Tests used:
[1] = tested on: cAMP-specific phosphodiesterase (PDE IV); assay: Inhibition of the PDE IV enzyme derived from a dog trachea; assay type: biochemical; details: test compound 10^−6 M; PDE IV from dog tracheal smooth muscle; substrate cAMP 1 μM
Protocol: cAMP-specific phosphodiesterase (PDE IV) was purified from a dog tracheal smooth muscle according to the method of Torphy et al. [Molecular Pharmacol., 37, 206-214 (1990)]. The PDE activity was measured by the following two steps according to the method of Kincaid and Manganiello et al. [Method in Enzymology (J. D. Corbin and R. A. Jonson, Eds.), 199, 457-470 (1988)]. Using [^3]cAMP (at a final concentration of 1 μM) as a substrate, the reaction was carried out in a standard mixture containing N,N-bis(2-hydroxyethyl)-2-aminoethanesulfonic acid (50 mM, pH=7.2), MgCl2 (1 mM), and soybean trypsin inhibitor (0.1 mg/ml). The reaction was initiated by adding the enzyme, followed by incubation at 30° C. for 10 to 30 minutes. After stopping the reaction with hydrochloric acid, the generated […] was completely converted to adenosine by 5′-nucleotidase.
The resultant was subjected to chromatography on DEAE-Sephadex A-25, and radio activity of the eluted [^3H] adenosine was counted using a scintillation counter. Each of the test drugs was dissolved in DMSO (final concentration 1.7%) and then added to the mixture.

Compound | melting point | Enzyme Inhibitory Activity (%, 10^−6 M) [1] [%]
COc1ccc(C(=O)Nc2c(Cl)cncc2Cl)c2c1OCC2C (racemic) [Compound 2, (±)-4-[(3,5-Dichloro-4-pyridyl)aminocarbonyl]-7-methoxy-3-methyl-2,3-dihydrobenzofuran] | 198 to 200 °C | 77
CCC1COc2c(OC)ccc(C(=O)Nc3c(Cl)cncc3Cl)c21 (racemic) [Compound 3, (±)-4-[(3,5-Dichloro-4-pyridyl)aminocarbonyl]-3-ethyl-7-methoxy-2,3-dihydrobenzofuran] | 202 to 204 °C | 75
COc1ccc(C(=O)Nc2c(Cl)cncc2Cl)c2c1OCC2C(C)C (racemic) [Compound 4, (±)-4-[(3,5-Dichloro-4-pyridyl)aminocarbonyl]-7-methoxy-3-(2-propyl)-2,3-dihydrobenzofuran] | 239 to 241 °C | 53
CCOC(=O)CC1COc2c(OC)ccc(C(=O)Nc3c(Cl)cncc3Cl)c21 (racemic) [Compound 5, (±)-4-[(3,5-Dichloro-4-pyridyl)aminocarbonyl]-3-ethoxycarbonylmethyl-7-methoxy-2,3-dihydrobenzofuran] | 186 to 188 °C | 85
CCOC(=O)CC1COc2c(OC)ccc(C(=O)Nc3ccccc3)c21 (racemic) [Compound 7, (±)-3-Ethoxycarbonylmethyl-7-methoxy-4-phenylaminocarbonyl-2,3-dihydrobenzofuran] | 169 to 170 °C | 37
CCOC(=O)CC1COc2c(OC)ccc(C(=O)NC3CCCCC3)c21 (racemic) [Compound 8, (±)-4-Cyclohexylaminocarbonyl-3-ethoxycarbonylmethyl-7-methoxy-2,3-dihydrobenzofuran] | 197 to 199 °C | 5
COc1ccc(C(=O)Nc2c(Cl)cncc2Cl)c2c1OCC2CC(=O)O (racemic) [Compound 9, (±)-3-Carboxymethyl-4-(3,5-dichloro-4-pyridylaminocarbonyl)-7-methoxy-2,3-dihydrobenzofuran] | 259 to 263 °C | 22
COc1ccc(C(=O)Nc2ccccc2)c2c1OCC2CC(=O)O (racemic) [Compound 11, (±)-3-Carboxymethyl-7-methoxy-4-phenylaminocarbonyl-2,3-dihydrobenzofuran] | 248 to 251 °C | 6
COc1ccc(C(=O)NC2CCCCC2)c2c1OCC2CC(=O)O (racemic) [Compound 12, (±)-3-Carboxymethyl-4-cyclohexylaminocarbonyl-7-methoxy-2,3-dihydrobenzofuran] | 246 to 247 °C | 8
COc1ccc(C(=O)Nc2c(Cl)cncc2Cl)c2c1OCC2CC(=O)OCc1ccccc1 (racemic) [Compound 13, (±)-3-Benzyloxycarbonylmethyl-4-[(3,5-Dichloro-4-pyridyl)aminocarbonyl]-7-methoxy-2,3-dihydrobenzofuran] | 198 to 205 °C | 94
COc1ccc(C(=O)Nc2ccccc2)c2c1OCC2CC(=O)OCc1ccccc1 (racemic) [Compound 15, (±)-3-Benzyloxycarbonylmethyl-7-methoxy-4-phenylaminocarbonyl-2,3-dihydrobenzofuran] | 179 to 180 °C | 75
COc1ccc(C(=O)Nc2c(Cl)cncc2Cl)c2c1OCC2CC(=O)NCc1cccnc1 (racemic) [Compound 18, (±)-4-[(3,5-Dichloro-4-pyridyl)aminocarbonyl]-7-methoxy-3-[(3-pyridylmethyl)aminocarbonyl]methyl-2,3-dihydrobenzofuran] | 258 to 261 °C (dec.) | 81
COc1ccc(C(=O)Nc2c(Cl)cncc2Cl)c2c1OCC2CC(=O)N1CCN(c2ccccc2)CC1 (racemic) [Compound 21, (±)-4-[(3,5-Dichloro-4-pyridyl)aminocarbonyl]-7-methoxy-3-[(4-phenyl-1-piperazinyl)carbonyl]methyl-2,3-dihydrobenzofuran] | 224 °C | 84
COc1ccc(C(=O)Nc2c(Cl)cncc2Cl)c2c1OCC2CC(=O)NCc1ccccc1 (racemic) [Compound 25, (±)-3-(Benzylaminocarbonyl)methyl-4-[(3,5-dichloro-4-pyridyl)aminocarbonyl]-7-methoxy-2,3-dihydrobenzofuran] | 284 to 286 °C | 84
COc1ccc(C(=O)Nc2c(Cl)cncc2Cl)c2c1OCC2CC(=O)Nc1ccccc1 (racemic) [Compound 27, (±)-4-[(3,5-Dichloro-4-pyridyl)aminocarbonyl]-7-methoxy-3-(phenylaminocarbonyl)methyl-2,3-dihydrobenzofuran] | 296 to 300 °C (dec.) | 75
COc1ccc(CNC(=O)CC2COc3c(OC)ccc(C(=O)Nc4c(Cl)cncc4Cl)c32)cc1 (racemic) [Compound 28, (±)-4-[(3,5-Dichloro-4-pyridyl)aminocarbonyl]-7-methoxy-3-[(4-methoxybenzyl)aminocarbonyl]methyl-2,3-dihydrobenzofuran] | 269 to 271 °C | 83
COc1ccc(C(=O)Nc2c(Cl)cncc2Cl)c2c1OCC2CC(=O)NCc1ccc(F)cc1 (racemic) [Compound 29, (±)-4-[(3,5-Dichloro-4-pyridyl)aminocarbonyl]-3-[(4-fluorobenzyl)aminocarbonyl]methyl-7-methoxy-2,3-dihydro-benzofuran] | 287 °C | 85
COc1ccc(C(=O)Nc2c(Cl)cncc2Cl)c2c1OCC2CC(=O)NCc1ccc(Cl)cc1 (racemic) [Compound 30, (±)-3-[(4-Chlorobenzyl)aminocarbonyl]methyl-4-[(3,5-dichloro-4-pyridyl)aminocarbonyl]-7-methoxy-2,3-dihydro-benzofuran] | 283 to 286 °C | 85
COc1ccc(C(=O)Nc2c(Cl)cncc2Cl)c2c1OCC2CC(=O)NCc1ccccc1Cl (racemic) [Compound 31, (±)-3-[(2-Chlorobenzyl)aminocarbonyl]methyl-4-[(3,5-dichloro-4-pyridyl)aminocarbonyl]-7-methoxy-2,3-dihydro-benzofuran] | 288 to 289 °C | 89
COc1ccc(C(=O)Nc2ccncc2)c2c1OC1(CCCC1)CC2.CS(=O)(=O)O [Compound 124, 8-Methoxy-5-(4-pyridylaminocarbonyl)-spiro[3,4-dihydrobenzopyran-2,1′-cyclopentane].methanesulfonate] | – | 57
COc1ccc(C=Cc2ccncc2)c2c1OC1(CCCC1)CC2.Cl [Compound 125, 8-Methoxy-5-[2-(4-pyridyl)ethenyl]-spiro[3,4-dihydrobenzopyran-2,1′-cyclopentane].hydrochloride] | – | 71
COc1ccc(C=Cc2ccncc2)c2c1OC1(CCCCC1)CC2.Cl [Compound 126, 8-Methoxy-5-[2-(4-pyridyl)ethenyl]-spiro[3,4-dihydrobenzopyran-2,1′-cyclohexane].hydrochloride] | – | 58
COc1ccc(C(=O)Cc2ccncc2)c2c1OC1(CCCC1)CC2.Cl [Compound 127, 8-Methoxy-5-[1-oxo-2-(4-pyridyl)ethyl]-spiro[3,4-dihydrobenzopyran-2,1′-cyclopentane].hydrochloride] | – | 70
COc1ccc(C(=O)Cc2ccncc2)c2c1OC1(CCCCC1)CC2.Cl [Compound 128, 8-Methoxy-5-[1-oxo-2-(4-pyridyl)ethyl]-spiro[3,4-dihydrobenzopyran-2,1′-cyclohexane].hydrochloride] | – | 62
COc1ccc(CCc2ccncc2)c2c1OC1(CCCC1)O2.Cl [Compound 136, 4-Methoxy-7-[2-(4-pyridyl)ethyl]-spiro[1,3-benzodioxole-2,1′-cyclopentane].hydrochloride] | – | 75
COc1ccc(C(Cc2ccncc2)c2ccccc2)c2c1OC1(CCCC1)O2.Cl (stereo not shown) [Compound 137, 4-Methoxy-7-[1-phenyl-2-(4-pyridyl)ethyl]-spiro[1,3-benzodioxole-2,1′-cyclopentane].hydrochloride] | – | 61
COc1ccc(C(=Cc2ccncc2)c2ccccc2)c2c1OC1(CCCC1)O2 [Compound 139, 4-Methoxy-7-[1-phenyl-2-(4-pyridyl)ethenyl]-spiro[1,3-benzodioxole-2,1′-cyclopentane]] | – | 54

— US6716987B1, “Derivatives of benzofuran or benzodioxazole compounds” (Kyowa Hakko Kogyo Co., Ltd., priority 1995, dated 2004)
